Results: patent publication US8748428B2, “Use of a PKC inhibitor” (Novartis AG, priority 2010, dated 2014)

Assays:
Assay type in all cases: cell-based
[1] = tested on: K422 cells; experiment: Growth inhibition, CellTiter-Glo, 5 days; conditions: 120 h; GC DLBCL, no NFkB mutation; 5 days treatment; read-out: growth inhibitory IC50, K422
From the text: (§1) Two pharmacological PKC inhibitors: (i) the pan-PKC inhibitor, Sotrastaurin, also known as AEB071, and (ii) the PKCa/b-selective compound, 3-[2-chloro-7-[(dimethylamino)methyl]-1-naphthalenyl]-4-[7-[2-(2-methoxyethoxy)ethoxy]-1H-indol-3-yl]-1H-pyrrole-2,5-dione (referred to herein as “Compound B”), were used to evaluate the proliferation of several diffuse large B cell lymphoma (DLBCL) lines. The IKKb-selective inhibitors N-(6-chloro-7-methoxy-9H-β-carbolin-8-yl)-2-methylnicotinamide (referred to herein as “MLN120B”) and N-[(2R,6R)-2,6-dimethyl-4-piperidinyl]-4-(7-fluoro-1H-indol-3-yl)-2-pyrimidinamine (referred to herein as “Compound A”) were used as control compounds. ABC DLBCL cell lines (OCI-LY3, OCI-LY10, HBL1, U2932, TMD8, Su-DHL2) and GC DLBCL cell lines (Su-DHL4, DB, K-422) were treated for 5 days with PKC inhibitors (A) Sotrastaurin (AEB071) or (B) Compound B; IKKb inhibitors (C) MLN120B or (D) Compound A. Cells were plated in 96-well plates (Corning, #3358) at 5000 cells/well in 100 μL and treated with DMSO or inhibitors at concentrations ranging from 160 nM to 20 μM (2-fold dilutions). Following 5 days of treatment, cells were lysed with CellTiter-Glo® Luminescent Cell Viability Assay reagent (Promega, G7573), lysates were transferred to opaque 96-well plates (Corning, #3971), and luminescence signal was read using the Envision. Percent growth was calculated relative to median DMSO signal.
(§2) While all ABC DLBCL cell lines were sensitive to IKK inhibitors, their response to PKC inhibitors varied strongly (Table 1A below). The cell lines that are insensitive to PKC inhibitors, OCI-Ly3 and Su-DHL2, have reported mutations in CARD11 and A20, respectively. […] The fact that these oncogenic lesions are thought to function downstream of PKCβ in CBM-NFkB signaling provides a molecular rationale for their insensitivity. […] See, Compagno, M., et al, “Mutations of multiple genes cause deregulation of NF-κB in diffuse large B-cell lymphoma” Nature, 459 (7247), 717-722 (2009)). […] Tables 1A and 1B below show the growth inhibitory IC50 values, which were determined by measuring ATP concentration (Cell Titer Glo), for the indicated compounds in the indicated cell lines. IC50 values were determined as the concentration of compound that leads to 50% reduction of cell growth.

[2] = tested on: OCI-Ly10 cells; experiment: Growth inhibition, CellTiter-Glo, 5 days; conditions: Homo sapiens, OCI-Ly10, 120 h; ABC DLBCL, CD79A mutation; 5 days treatment; read-out: growth inhibitory IC50, OCI-Ly10
From the text: as §1, §2

[3] = tested on: HBL1 cells; experiment: Growth inhibition, CellTiter-Glo, 5 days; conditions: HBL1, 120 h; ABC DLBCL, CD79B mutation; 5 days treatment; read-out: growth inhibitory IC50, HBL1
From the text: as §1, §2

[4] = tested on: Su-DHL4 cells; experiment: Growth inhibition, CellTiter-Glo, 5 days; conditions: Homo sapiens, SU-DHL-4, 120 h; GC DLBCL, no NFkB mutation; 5 days treatment; read-out: growth inhibitory IC50, Su-DHL4
From the text: as §1, §2

[5] = tested on: U2392 cells; experiment: Growth inhibition, CellTiter-Glo, 5 days; conditions: 120 h; ABC DLBCL, TAK1 mutation; 5 days treatment; read-out: growth inhibitory IC50, U2392
From the text: as §1, §2

[6] = tested on: TMD8 cells; experiment: Growth inhibition, CellTiter-Glo, 5 days; conditions: Homo sapiens, TMD8, 120 h; ABC DLBCL, CD79B mutation; 5 days treatment; read-out: growth inhibitory IC50, TMD8
From the text: as §1, §2

[7] = tested on: OCI-Ly3 cells; experiment: Growth inhibition, CellTiter-Glo, 5 days; conditions: Homo sapiens, OCI-Ly3, 120 h; ABC DLBCL, CARD11 mutation; 5 days treatment; read-out: growth inhibitory IC50, OCI-Ly3
From the text: as §1, §2

[8] = tested on: DB cells; experiment: Growth inhibition, CellTiter-Glo, 5 days; conditions: Homo sapiens, 120 h, GC DLBCL, no NFkB mutation, 5 days treatment, read-out: growth inhibitory IC50, DB
From the text: as §1, §2

[9] = tested on: Su-DHL2 cells; experiment: Growth inhibition, CellTiter-Glo, 5 days; conditions: Homo sapiens, SU-DHL-2, 120 h; ABC DLBCL, A20 mutation; 5 days treatment; read-out: growth inhibitory IC50, Su-DHL2
From the text: as §1, §2

[10] = tested on: IL-6 secretion in HBL1 cells; experiment: IL-6 secretion (Quantikine ELISA); conditions: HBL1, ELISA of supernatant, 48 hours
Procedure: (§3) The fact that IL-6 is secreted from cells allowed for monitoring of IL-6 levels in cell supernatants. IL-6 secretion was determined by Quantikine ELISA using supernatant from treated cells. Cells were washed and plated at 100,000 cells/well in 100 ul in fresh media in round-bottom 96-well plates (Corning, #3358). The cells were then treated with DMSO or inhibitors at concentrations ranging from 80 nM to 10 uM (2-fold dilutions), and incubated at 37° C. for 48 hours. Then the conditioned media was transferred to v-bottom 96-well plates (Nunc, #12565436). The level of IL-6 secretion was determined by the Quantkine colorimetric ELISA kit from (R & D Systems, #D6050), according to the manufacturer's instructions. For the IL-6 ELISA, the conditioned media was diluted 1:2 with fresh media (except ion: the HBL1 conditioned media was not diluted, it was used 1:1). In FIG. 2, IL-6 secretion for each dose is expressed as a percentage of IL-6 secretion from cells treated with DMSO.

[11] = tested on: IL-6 secretion in TMD8 cells; experiment: IL-6 secretion (Quantikine ELISA); conditions: Homo sapiens; TMD8, ELISA of supernatant, 48 hours
Procedure: as §3

[12] = tested on: IL-6 mRNA in TMD8 cells; experiment: IL-6 mRNA expression (Taqman); conditions: TMD8, 24 hours, 10 nM to 10 uM
From the text: Constitutive activation of the NFkB pathway is a molecular hallmark of ABC DLBCL cells and is required for their proliferation and survival. See Davis, R. E., et al., J Exp Med, 194(12), 1861-1874 (2001). To confirm that the growth inhibitory effect in response to PKC inhibition is mediated through modulation of NFkB pathway signaling, the expression of NFkB pathway genes were monitored in response to AEB071 treatment. The NFkB-pathway-induced cytokine IL-6 was used as a marker to study NFkB pathway modulation by PKC inhibitors. See Lam, L. T., et al., Blood 111(7):3701-13 (2008). To measure IL-6 mRNA levels, cells were plated in […] plates in 2 ml media at 2M/ml, then treated with DMSO or inhibitors from 10 nM to 10 uM (4-fold dilutions) for 24 hours. Total RNA was harvested using the RNeasy kit (Qiagen, #74104) and cDNA was made from 1 μg total RNA using the High Capacity cDNA kit (ABI, #4368814), according to manufacturer's protocols. Taqman probes (ABI: IL-6, Hs00174131_m1) were used with Gene Expression Master Mix (ABI, 4369510) to determine the amount of mRNA expression for IL-6 relative to an endogenous control gene (ABI: TBP, 4326322E) and the DMSO control using the delta-delta Ct method.

IC50 [2]	IC50 [4]	IC50 [7]	IC50 [9]	IC50 [10]	IC50 [11]	SMILES	IC50 [1]	IC50 [3]	IC50 [5]	IC50 [6]	IC50 [8]	IL-6 mRNA expression [12]
0.3 µM	10 µM	0.4 µM	15 µM			C[C@@H]1CC(Nc2nccc(-c3c[nH]c4c(F)cccc34)n2)C[C@@H](C)N1 (stereo partly drawn) [Compound A, N-[(2R,6R)-2,6-dimethyl-4-piperidinyl]-4-(7-fluoro-1H-indol-3-yl)-2-pyrimidinamine]	10 µM	2.5 µM	2.5 µM	0.2 µM	> 20 µM	
0.5 µM	7.5 µM	> 20 µM	15 µM	< 0.2 µM	< 0.2 µM	COCCOCCOc1cccc2c(C3=C(c4c(Cl)ccc5ccc(CN(C)C)cc45)C(=O)NC3=O)c[nH]c12 [Compound B, 3-[2-chloro-7-[(dimethylamino)methyl]-1-naphthalenyl]-4-[7-[2-(2-methoxyethoxy)ethoxy]-1H-indol-3-yl]-1H-Pyrrole-2,5-dione]	11 µM	0.5 µM	10 µM	0.2 µM	> 20 µM	reduced IL-6 mRNA expression in a dose-dependent manner
	15 µM	15 µM	> 20 µM			O=C1NC(=O)C(c2c[nH]c3ccccc23)=C1c1nc(N2CCNCC2)nc2ccccc12 [Compound D, 3-(1H-Indol-3-yl)-4-[2-(piperazin-1-yl)quinazolin-4-yl]pyrrole-2,5-dione]		0.2 µM	3 µM	0.2 µM	> 20 µM	
						CN(C)C[C@@H]1CCn2cc(c3ccccc32)C2=C(C(=O)NC2=O)c2cn(c3ccccc23)CCO1 [LY333531, (9S)-9-[(dimethylamino)methyl]-6,7,10,11-tetrahydro-9H,18H-5, 21:12,17-dimethenodibenzo[e,k]pyrrolo[3,4-h][1,4,13]oxadiazacyclohexadecine-18,20(19H)-dione]						reduced IL-6 mRNA expression in a dose-dependent manner
10 µM	> 20 µM	12 µM	10 µM			COc1c(Cl)cc2c([nH]c3cnccc32)c1NC(=O)c1cccnc1C [MLN120B, N-(6-chloro-7-methoxy-9H-β-carbolin-8-yl)-2-methylnicotinamide]	> 40 µM	10 µM	10 µM	10 µM	> 40 µM	
